The source of these data is patent publication US20250346600A1, “TRICYCLIC DERIVATIVES AND RELATED USES” (MOMA Therapeutics, Inc., priority 2023, published 2025).

One assay has as its system HT29 cells. As to the kind of experiment: HT29 (MSS) 7 day viability, CellTiter Glo. It is filed as cell-based. Particulars: Homo sapiens, HT-29, 168 h, 7 days, read-out: HT29 (MSS) Viability 7 Day CTGAbs AC50. The method in brief: (§1)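 Seven-day viability is assessed with CellTiter Glo after compounds, diluted in ten 3-fold steps in DMSO, are exposed to HCT116 (50 cells/well) or HT29 (500 cells/well). Reported IC50 is the geometric mean of at least two independent runs.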
Background: In ATP-based viability assays light output follows the ATP content of the culture.

For assay [1], the target named is T1, Full length WRN protein (aa 2-1432) (Homo sapiens (Human), UniProt Q14191). As to the kind of experiment: WRN ATPase ADP-Glo biochemical assay, Assay Format A (10 μM ATP). To be noted: 0.25 nM WRN, 100 nM C6.18 ssDNA, 30 min preincubation, read-out: ATPase ADPGlo AC50 (uM)- Assay Format A. The method in brief:
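Sf9-expressed FLAG-AVI-TEV-tagged WRN (0.5 nM) preincubated 30 min with compound (11-point 3-fold dilution). Reaction started with 200 nM C6.18 39-mer ssDNA and 20 μM ATP (addition concentrations), run 30 min at room temperature. ADP measured by ADP-Glo luminescence; IC50 from four-parameter fit, geometric mean of ≥2 runs.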
(In ADP-Glo the light output rises with the ADP produced.)

In a further assay the test system is HCT116 cells. As to the kind of experiment: HCT116 (MSI) 7 day viability, CellTiter Glo. It is filed as cell-based. Particulars: Homo sapiens, HCT-116, 168 h, 7 days, read-out: HCT116 (MSI) Viability 7 Day Abs AC50. An outline of the steps:
as §1

Assay [2] has as its target T1, Full length WRN protein (aa 2-1432). The assay can be described thus: WRN ATPase ADP-Glo biochemical assay, Assay Format B (100 μM ATP). To be noted: 0.25 nM WRN, 100 nM C6.18 ssDNA, 60 min preincubation, read-out: ATPase ADPGlo AC50 (uM)- Assay Format B.

T1 sequence (Q14191 2-1432): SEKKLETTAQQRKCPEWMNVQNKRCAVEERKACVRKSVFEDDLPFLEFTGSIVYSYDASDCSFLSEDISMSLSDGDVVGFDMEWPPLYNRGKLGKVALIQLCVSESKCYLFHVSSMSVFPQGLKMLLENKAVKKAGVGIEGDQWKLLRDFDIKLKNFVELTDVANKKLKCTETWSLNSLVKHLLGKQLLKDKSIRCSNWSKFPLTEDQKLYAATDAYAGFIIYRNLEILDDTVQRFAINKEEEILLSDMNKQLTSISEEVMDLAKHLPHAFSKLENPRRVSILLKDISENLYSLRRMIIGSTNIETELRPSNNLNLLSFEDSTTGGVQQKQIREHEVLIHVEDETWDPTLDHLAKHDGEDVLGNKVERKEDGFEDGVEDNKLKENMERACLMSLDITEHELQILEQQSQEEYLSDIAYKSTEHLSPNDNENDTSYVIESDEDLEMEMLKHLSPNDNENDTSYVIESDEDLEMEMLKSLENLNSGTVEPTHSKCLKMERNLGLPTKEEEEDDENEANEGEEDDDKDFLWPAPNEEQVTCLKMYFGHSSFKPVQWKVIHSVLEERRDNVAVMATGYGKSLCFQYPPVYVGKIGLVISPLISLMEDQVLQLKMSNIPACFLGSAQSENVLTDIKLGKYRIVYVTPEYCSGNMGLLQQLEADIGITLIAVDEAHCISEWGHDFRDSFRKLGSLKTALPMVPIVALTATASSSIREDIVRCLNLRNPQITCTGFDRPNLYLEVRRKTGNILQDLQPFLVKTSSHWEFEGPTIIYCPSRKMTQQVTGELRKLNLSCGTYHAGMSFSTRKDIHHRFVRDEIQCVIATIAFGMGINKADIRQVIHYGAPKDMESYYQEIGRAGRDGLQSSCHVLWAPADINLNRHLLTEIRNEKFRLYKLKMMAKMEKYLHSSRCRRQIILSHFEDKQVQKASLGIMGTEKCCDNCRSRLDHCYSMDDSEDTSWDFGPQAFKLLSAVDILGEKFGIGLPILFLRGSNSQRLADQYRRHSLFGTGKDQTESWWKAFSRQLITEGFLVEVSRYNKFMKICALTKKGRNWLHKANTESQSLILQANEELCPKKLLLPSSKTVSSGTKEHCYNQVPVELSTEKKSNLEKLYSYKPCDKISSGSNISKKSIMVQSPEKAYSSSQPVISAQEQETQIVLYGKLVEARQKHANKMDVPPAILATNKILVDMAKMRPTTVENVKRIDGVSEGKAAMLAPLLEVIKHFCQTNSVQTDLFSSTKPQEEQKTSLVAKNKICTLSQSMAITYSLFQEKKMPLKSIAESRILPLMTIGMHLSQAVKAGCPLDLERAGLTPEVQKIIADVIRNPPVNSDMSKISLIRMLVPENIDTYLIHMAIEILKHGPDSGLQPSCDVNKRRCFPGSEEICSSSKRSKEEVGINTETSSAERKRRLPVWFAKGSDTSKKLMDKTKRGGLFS

Usually AC50 stands for the concentration giving half of the maximal activity seen. As to `C=C(F)C(=O)N1CCc2nn(-c3ccc(C(C)C)cc3)c3c2C(C1)N(C(=O)c1ccc(Br)c2[nH]cnc12)CC3` (stereo not shown) [Compound 17, 1-(5-(7-bromo-1H-benzo[d]imidazole-4-carbonyl)-2-(4-isopropylphenyl)-2,3,4,5,5a,6,8,9-octahydro-7H-1,2,5,7-tetraazabenzo[cd]azulen-7-yl)-2-fluoroprop-2-en-1-one], the AC50 in the assay with HT29 cells is > 3000 nM; in assay [1], 0.015 to 0.055 µM; in the assay with HCT116 cells, > 1000 nM; in assay [2] it was > 0.055 µM.
Taken in the same sequence, the figures for `C=CC(=O)N1CCc2nn(-c3ccc(C4CC4)cc3)c3c2C(C1)N(C(=O)c1ccc(C#N)c2[nH]cnc12)CC3` (stereo not shown) [Compound 18, 4-(7-acryloyl-2-(4-cyclopropylphenyl)-3,4,5,5a,6,7,8,9-octahydro-2H-1,2,5,7-tetraazabenzo[cd]azulene-5-carbonyl)-1H-benzo[d]imidazole-7-carbonitrile] were > 3000 nM, 0.0015 to 0.005 µM, 1 to 100 nM and 0.015 to 0.055 µM.
In the case of `C=CC(=O)N1CCc2nn(-c3ccc(C45CC(C4)C5)cc3)c3c2C(C1)N(C(=O)c1ccc(C(F)(F)F)c2[nH]ncc12)CC3` (stereo not shown) [Compound 19, 1-(2-(4-(bicyclo[1.1.1]pentan-1-yl)phenyl)-5-(7-(trifluoromethyl)-1H-indazole-4-carbonyl)-2,3,4,5,5a,6,8,9-octahydro-7H-1,2,5,7-tetraazabenzo[cd]azulen-7-yl)prop-2-en-1-one], the AC50 in the assay on HT29 cells is > 3000 nM; in assay [1], 0.0015 to 0.005 µM; with HCT116 cells, 1 to 100 nM; in assay [2], 0.015 to 0.055 µM.
Taken in the same sequence, the figures for `C=CC(=O)N1CCc2nn(-c3ccc(C(C)C)cc3O)c3c2C(C1)N(C(=O)c1ccc(Br)c2[nH]cnc12)CC3` (stereo not shown) [Compound 20, 1-(5-(7-bromo-1H-benzo[d]imidazole-4-carbonyl)-2-(2-hydroxy-4-isopropylphenyl)-2,3,4,5,5a,6,8,9-octahydro-7H-1,2,5,7-tetraazabenzo[cd]azulen-7-yl)prop-2-en-1-one] were > 3000 nM, < 0.0015 µM, 1 to 100 nM and 0.005 to 0.015 µM.
For `C=CC(=O)N1CCc2nn(-c3ccc(C(C)C)cc3O)c3c2C(C1)N(C(=O)c1cnc(C(F)(F)F)c(O)c1)CC3` (stereo not shown) [Compound 21, 1-(2-(2-hydroxy-4-isopropylphenyl)-5-(5-hydroxy-6-(trifluoromethyl)nicotinoyl)-2,3,4,5,5a,6,8,9-octahydro-7H-1,2,5,7-tetraazabenzo[cd]azulen-7-yl)prop-2-en-1-one], the half-maximal activity concentration (AC50) in the assay with HT29 cells was > 3000 nM; in assay [1], < 0.0015 µM; in the assay with HCT116 cells it was 1 to 100 nM; in assay [2] it was 0.005 to 0.015 µM.
In the case of `C=CC(=O)N1CCc2nn(-c3ccc(C(C)C)cc3O)c3c2C(C1)N(C(=O)c1cnc(Br)c2[nH]cnc12)CC3` (stereo not shown) [Compound 22, 1-(5-(4-bromo-3H-imidazo[4,5-c]pyridine-7-carbonyl)-2-(2-hydroxy-4-isopropylphenyl)-2,3,4,5,5a,6,8,9-octahydro-7H-1,2,5,7-tetraazabenzo[cd]azulen-7-yl)prop-2-en-1-one], the AC50 was > 3000 nM in the assay with HT29 cells, 0.0015 to 0.005 µM in assay [1], 250 to 500 nM in the assay with HCT116 cells and 0.015 to 0.055 µM in assay [2].
Taken in the same sequence, the figures for `C=CC(=O)N1CCc2nn(-c3ccc(C4CCC4)cc3O)c3c2C(C1)N(C(=O)c1ccc(Br)c2[nH]cnc12)CC3` (stereo not shown) [Compound 23, 1-(5-(7-bromo-1H-benzo[d]imidazole-4-carbonyl)-2-(4-cyclobutyl-2-hydroxyphenyl)-2,3,4,5,5a,6,8,9-octahydro-7H-1,2,5,7-tetraazabenzo[cd]azulen-7-yl)prop-2-en-1-one] were > 3000 nM, < 0.0015 µM, 1 to 100 nM and 0.0015 to 0.005 µM.
Taken in the same sequence, the figures for `C=CC(=O)N1CCc2nn(-c3ccc(C4CCC4)cc3O)c3c2C(C1)N(C(=O)c1ccc2c(Br)n[nH]c2c1)CC3` (stereo not shown) [Compound 24, 1-(5-(3-bromo-1H-indazole-6-carbonyl)-2-(4-cyclobutyl-2-hydroxyphenyl)-2,3,4,5,5a,6,8,9-octahydro-7H-1,2,5,7-tetraazabenzo[cd]azulen-7-yl)prop-2-en-1-one] were > 3000 nM, < 0.0015 µM, 1 to 100 nM and 0.005 to 0.015 µM.
Regarding `C=CC(=O)N1CCc2nn(-c3ccc(C4CCC4)cc3O)c3c2C(C1)N(C(=O)c1cnc(C(F)(F)F)c(O)c1)CC3` (stereo not shown) [Compound 25, 1-(2-(4-cyclobutyl-2-hydroxyphenyl)-5-(5-hydroxy-6-(trifluoromethyl)nicotinoyl)-2,3,4,5,5a,6,8,9-octahydro-7H-1,2,5,7-tetraazabenzo[cd]azulen-7-yl)prop-2-en-1-one], the AC50 was > 3000 nM with HT29 cells, < 0.0015 µM in assay [1], 1 to 100 nM in the assay on HCT116 cells and 0.005 to 0.015 µM in assay [2].
Taken in the same sequence, the figures for `C=CC(=O)N1CCc2nn(-c3ccc(C4CCC4)cc3)c3c2C(C1)N(C(=O)c1cnc(C(F)(F)F)c(O)c1)CC3` (stereo not shown) [Compound 26, 1-(2-(4-cyclobutylphenyl)-5-(5-hydroxy-6-(trifluoromethyl)nicotinoyl)-2,3,4,5,5a,6,8,9-octahydro-7H-1,2,5,7-tetraazabenzo[cd]azulen-7-yl)prop-2-en-1-one] were > 3000 nM, < 0.0015 µM, 1 to 100 nM and 0.005 to 0.015 µM.
As to `C=CC(=O)N1CC(OC)c2nn(-c3ccc(C4CCC4)cc3)c3c2C(C1)N(C(=O)c1ccc(Br)c2[nH]cnc12)CC3` (stereo not shown) [Compound 27, 1-(5-(7-bromo-1H-benzo[d]imidazole-4-carbonyl)-2-(4-cyclobutylphenyl)-9-methoxy-2,3,4,5,5a,6,8,9-octahydro-7H-1,2,5,7-tetraazabenzo[cd]azulen-7-yl)prop-2-en-1-one], the AC50 with HT29 cells is > 3000 nM; in assay [1], < 0.0015 µM; with HCT116 cells it was 1 to 100 nM; in assay [2], 0.0015 to 0.005 µM.
Take `C=CC(=O)N1CC(F)c2nn(-c3ccc(C4CCC4)cc3)c3c2C(C1)N(C(=O)c1ccc(Br)c2[nH]cnc12)CC3` (stereo not shown) [Compound 28, 1-(5-(7-bromo-1H-benzo[d]imidazole-4-carbonyl)-2-(4-cyclobutylphenyl)-9-fluoro-2,3,4,5,5a,6,8,9-octahydro-7H-1,2,5,7-tetraazabenzo[cd]azulen-7-yl)prop-2-en-1-one]: the concentration at half-maximal activity (AC50) is 1000 to 3000 nM in the assay with HT29 cells, < 0.0015 µM in assay [1], 1 to 100 nM in the assay with HCT116 cells and 0.0015 to 0.005 µM in assay [2].
Taken in the same sequence, the figures for `C=CC(=O)N1CCc2nn(-c3ccc(C45CC(C4)C5)nc3)c3c2C(C1)N(C(=O)c1ccc(Br)c2[nH]cnc12)CC3` (stereo not shown) [Compound 29, 1-(2-(6-(bicyclo[1.1.1]pentan-1-yl)pyridin-3-yl)-5-(7-bromo-1H-benzo[d]imidazole-4-carbonyl)-2,3,4,5,5a,6,8,9-octahydro-7H-1,2,5,7-tetraazabenzo[cd]azulen-7-yl)prop-2-en-1-one] were > 3000 nM, 0.015 to 0.055 µM, 100 to 250 nM and > 0.055 µM.
